Assay [1] can be described thus: Ability to inhibit substance P endopeptidase at concentration of 1.5 uM.
The nature of assay [2]: Ability to inhibit substance P endopeptidase at concentration of 10 uM.

Peptide text beside a SMILES is read from it. * marks the point of attachment. X1 = CSCC[C@H](NC(=O)[C@H](CC(C)C)NC(=O)CNC(=O)C(/C=C/[C@H](Cc1ccccc1)N*)(Cc1ccccc1)Cc1ccccc1)C(N)=O

As a reminder, the inhibition is the drop in the measured response relative to a control, in per cent. The low end stands for a weak effect, the high end for a strong effect. `N[C@H](/C=C/C(CO)(Cc1ccccc1)Cc1ccccc1)Cc1ccccc1`: the inhibition in assay [1] came out at 50%.

As to `CSCC[C@H](NC(=O)[C@H](CC(C)C)NC(=O)CNC(=O)C(/C=C/[C@H](Cc1ccccc1)NC(=O)[C@H](CCC(N)=O)NC(=O)[C@H](CCC(N)=O)NC(=O)[C@@H]1CCCN1C(=O)[C@H](CCCCN)NC(=O)[C@@H]1CCCN1C(=O)[C@@H](N)CCCN=C(N)N)(Cc1ccccc1)Cc1ccccc1)C(N)=O` (H-RPKPQQ-X1), the inhibition in assay [2] was determined as 50%.

The record behind these values is ChEMBL document CHEMBL1152037, “Novel peptidomimetics: inhibitors of substance P endopeptidase” (Bioorg Med Chem Lett, 1992).
